{
  "source": "patent US20260034103A1",
  "about": "“COMPOSITIONS AND METHODS FOR IMPROVING MEMORY AND COGNITION” (priority 2022, published 2026)",
  "key": {"[1]": {"test_system": "Sprague Dawley rat hippocampal slices", "experiment": "Ex vivo electrophysiology: paired-pulse ratio (short-term plasticity), CA1 with Schaffer collateral stimulation", "assay_type": "cell-based", "details": "10 nM and 100 nM; interstimulus intervals 50-400 ms; vs vehicle 0.01% DMSO", "protocol": "Response is Stratum radiatum of area CA1 of the hippocampus with Schaffer collateral stimulation. Statistical differences correspond to the ones observed between Compound 1 10 nM and Vehicle groups.\nStatistical differences correspond to the ones observed between Compound 1 100 nM and Vehicle groups.\n(§1) The effect of compound 1 to enhance mEPSPs may be dependent on the influx of extracellular calcium."}, "rats": {"test_system": "rats", "experiment": "Freely behaving rodent model of long-term potentiation (LTP)", "assay_type": "in vivo, rat", "details": "0.01 and 0.1 mg/kg IV", "protocol": "Amplitudes of fEPSP are normalized to baseline and plotted against time.\nA freely behaving rodent model of long-term potentiation (LTP), a frequently studied form of synaptic plasticity, was employed. LTP is a persistent increase in the strength of synaptic connections between neurons, and is a cellular mechanism widely considered to underlie the processes of learning and memory. At 0.01 and 0.1 mg/kg IV compound 1 increased LTP compared to vehicle controls (FIGS. 10-11)."}, "Wistar rats": {"test_system": "Wistar rats", "experiment": "Novel object recognition test, subchronic PCP-induced cognitive impairment", "assay_type": "in vivo, rat", "protocol": "The total exploration time of two identical objects in the acquisition trial was measured manually and indicated as the mean±SEM (n=10). No statistical difference was found in the total exploration time among the different groups by one-way ANOVA (P=0.340).\n(§2) NDI was calculated using the following equation: novel object interaction time/total interaction time×100(%). Data are represented as the mean±SEM (n=10). Significant difference from control group was indicated by ***P<0.001 (Student's t-test). Significant differences from PCP-treated group were indicated by ##P<0.01, #P<0.05 (Dunnett test). Significant difference from PCP-treated group were indicated by ††P<0.01 (Student's t-test).\nExploration time of each object in retention trial was measured manually and presented as the mean±SEM (n=10). Significant differences from familiar object interaction were indicated by ***P<0.001, **P<0.01 (paired t-test).\nA novel object recognition test was conducted to investigate the effect of SP-624 on subchronic PCP-induced cognitive impairment in Wistar rats. Clozapine was used as a positive control."}, "[2]": {"test_system": "Sprague Dawley rat hippocampal slices", "experiment": "Ex vivo electrophysiology in rat hippocampal slices: mEPSP frequency", "assay_type": "cell-based", "text": "as §1"}, "[3]": {"test_system": "Sprague Dawley rat hippocampal slices", "experiment": "Ex vivo electrophysiology: short-lasting long-term potentiation (S-LTP) at hippocampal CA1 synapses", "assay_type": "cell-based", "details": "10 nM; single 1-sec train of 100-Hz stimulation", "text": "Time-point 0 represents delivery of HFS. Slopes of fEPSP are normalized to baseline and plotted against time.\nas §1"}, "[4]": {"test_system": "adult subjects with major depressive disorder (MDD)", "experiment": "Phase 2 clinical trial in MDD: HAM-D Item #17 Retardation", "assay_type": "in vivo, human", "details": "20 mg/day; for HAM-D Item #17 Retardation Change From Baseline, Max / HAM-D Item #17 Retardation Change From Baseline, Mean (SD) / HAM-D Item #17 Retardation Change From Baseline, Median / HAM-D Item #17 Retardation Change From Baseline, Min / HAM-D Item #17 Retardation score, Max / HAM-D Item #17 Retardation score, Mean (SD) / HAM-D Item #17 Retardation score, Median / HAM-D Item #17 Retardation score, Min: mITT, Females", "protocol": "A Phase 2, multicenter, double-blind, randomized, placebo-controlled study of the safety and efficacy of SP-624 in the treatment of adult subjects with major depressive disorder (MDD) as defined by the Diagnostic and Statistical Manual of Mental Disorders, Fifth Edition (DSM-5) was carried out. Following the successful completion of a Screening Phase, subjects were randomized to one of two treatment groups in a 1:1 ratio and received Compound 1 (SP-624) or placebo over a treatment period of four weeks (Treatment Group #1: SP-624 20 mg/day; Treatment Group #2: Placebo).\nPrior to initiating the 4-week treatment period, subjects completed a Screening/Baseline period of up to 28 days, during which time all screening assessments were performed, and any current depression medications discontinued. All screening assessments were completed before discontinuing any current depression medications. Subjects returned for a Baseline Visit to complete efficacy and safety assessments. During the treatment period, subjects returned to the investigative site to complete efficacy and safety assessments at the end of Weeks 1, 2, 3, and 4. After the final dose of study drug, subjects completed a follow-up period of two weeks and returned at the end of Weeks 5 and 6. Subjects may be treated with anti-depressant medications according to physician recommendations after completion of the Week 5 Visit.\nEach dose of Compound 1 was supplied as two capsules, each containing 10 mg of active pharmaceutical ingredient (API). Matching placebo capsules identical in shape and color to the active capsules were used.\nThe second cognitive function measurement is HAM-D Item #17 Retardation (slowness of thought and speech, impaired ability to concentrate, decreased motor activity). The answer scale is: 0—Normal speech and thought; 1—Slight retardation at interview (mild psychomotor retardation); 2—Obvious retardation at interview (moderate, some difficulty with interview, noticeable pauses and slowness of thought); 3—Interview difficult (severe psychomotor retardation, very long pauses); 4—Complete stupor (extreme retardation, interview barely possible)."}, "Long-Evans rats": {"test_system": "Long-Evans rats", "experiment": "Novel object recognition test, scopolamine-induced cognitive impairment", "assay_type": "in vivo, rat", "details": "0.1 and 1 mg/kg PO", "protocol": "Total exploration time of two identical objects in the acquisition trial was measured manually and indicated as the mean±SEM (n=8). No statistical difference was found in the total exploration time among the different groups by one-way ANOVA (P=0.115).\nas §2, with “(n=8).” for “(n=10).”, “scopolamine-treated vehicle” for “PCP-treated”, “##P<0.01” for “##P<0.01, #P<0.05”, “†††P<0.001” for “††P<0.01”\nExploration time of each object in retention trial was measured manually and presented as the mean±SEM (n=8). Significant differences from familiar object interaction were indicated by **P<0.01, *P<0.05 (paired t-test).\nA novel object recognition test (which evaluates visual learning and memory) was conducted to investigate the effect of compound 1 on scopolamine-induced cognitive impairment in Long-Evans rats. Donepezil was used as a positive control. Scopolamine at 0.1 mg/kg SC reduced the novelty discrimination index (NDI) a measure of cognitive function (FIGS. 4-6)."}},
  "data": [
    {"compound": "COC1=CC(=O)C[C@@H](C)[C@]12Oc1c(Cl)c(-c3nnc(C)o3)cc(OC)c1C2=O", "note": "[Compound 1, (2S,6′R)-7-Chloro-2′,4-dimethoxy-6′-methyl-6-(5-methyl-1,3,4-oxadiazol-2-yl)-3H-spiro[1-benzofuran-2,1′-cyclohex[2]ene]-3,4′-dione]", "values": [
      {"measurement": "short-term plasticity (paired-pulse ratio)", "setting": "[1]", "value": "enhanced short-term plasticity"},
      {"measurement": "LTP compared to vehicle controls", "setting": "rats", "value": "increased LTP"},
      {"measurement": "sub-chronic PCP-induced cognitive deficits in the NDI", "setting": "Wistar rats; 0.01 mg/kg", "value": "not"},
      {"measurement": "sub-chronic PCP-induced cognitive deficits in the NDI", "setting": "Wistar rats; 0.1 and 1 mg/kg", "value": "significantly attenuated"},
      {"measurement": "frequency of miniature excitatory post-synaptic potentials (mEPSPs) in the hippocampus", "setting": "[2]", "value": "increase the frequency"},
      {"measurement": "short-lasting long-term potentiation (S-LTP)", "setting": "[3]", "value": "tended to increase"},
      {"measurement": "HAM-D Item #17 Retardation Change From Baseline, Max", "setting": "[4]; Week 2", "value": 2},
      {"measurement": "HAM-D Item #17 Retardation Change From Baseline, Mean (SD)", "setting": "[4]; Week 2", "value": "−0.2 (0.79)"},
      {"measurement": "HAM-D Item #17 Retardation Change From Baseline, Median", "setting": "[4]; Week 2", "value": 0},
      {"measurement": "HAM-D Item #17 Retardation Change From Baseline, Min", "setting": "[4]; Week 2", "value": "−2"},
      {"measurement": "HAM-D Item #17 Retardation score, Max", "setting": "[4]; Week 2", "value": 2},
      {"measurement": "HAM-D Item #17 Retardation score, Mean (SD)", "setting": "[4]; Week 2", "value": "0.6 (0.71)"},
      {"measurement": "HAM-D Item #17 Retardation score, Median", "setting": "[4]; Week 2", "value": 0},
      {"measurement": "HAM-D Item #17 Retardation score, Min", "setting": "[4]; Week 2", "value": 0},
      {"measurement": "HAM-D Item #17 Retardation Change From Baseline, Max", "setting": "[4]; Week 4", "value": 1},
      {"measurement": "HAM-D Item #17 Retardation Change From Baseline, Mean (SD)", "setting": "[4]; Week 4", "value": "−0.4 (0.82)"},
      {"measurement": "HAM-D Item #17 Retardation Change From Baseline, Median", "setting": "[4]; Week 4", "value": 0},
      {"measurement": "HAM-D Item #17 Retardation Change From Baseline, Min", "setting": "[4]; Week 4", "value": "−2"},
      {"measurement": "HAM-D Item #17 Retardation score, Max", "setting": "[4]; Week 4", "value": 2},
      {"measurement": "HAM-D Item #17 Retardation score, Mean (SD)", "setting": "[4]; Week 4", "value": "0.4 (0.55)"},
      {"measurement": "HAM-D Item #17 Retardation score, Median", "setting": "[4]; Week 4", "value": 0},
      {"measurement": "HAM-D Item #17 Retardation score, Min", "setting": "[4]; Week 4", "value": 0},
      {"measurement": "HAM-D Item #17 Retardation, improvement in score vs placebo", "setting": "[4]; by week 4 of treatment", "value": "greater improvement in score"},
      {"measurement": "novelty discrimination index (NDI) reduced by scopolamine", "setting": "Long-Evans rats", "value": "significantly improved"}
    ]}
  ]
}
